This note sets out measurements from patent US10683299B2, “Pyrazolopyrazine and triazolopyrazine compounds for the treatment of infectious diseases” (Hoffmann-La Roche Inc., priority 2017, dated 2020).

pEC50: −log10 of the molar value.

The first test relates to HBV replication in HepG2.2.15 cells. Nature of the test: HBV inhibition assay in HepG2.2.15 cells (extracellular HBV DNA by qPCR). Type of test: cell-based, Hepatitis B virus. The note with it: Hepatitis B virus, HepG2.2.15, 120 h, five days after compound treatment, extracellular HBV DNA in culture supernatant by qPCR, read-out: EC50 (effective compound concentration at which HBV replication was inhibited by 50%). An excerpt:
HepG2.2.15 is a stably-transfected cell line containing the HBV genome. It is derived from the hepatoblastoma cell line Hep G2 (American Type Culture Collection, ATCC® HB-8065™) by the published procedures described in reference: M A Selles et al. Proc. Natl. Acad. Sci. USA 1987, 84, 1005-1009. The cell line was maintained in Dulbecco's modified Eagle's medium and nutrient mixture F-12 (DMEM/F-12, Gibco, Cat. #: 11320-033) supplemented with 10% fetal bovine serum (Gibco, Cat. #:10099-141), 100 U/mL penicillin, 100 μg/mL streptomycin (Gibco, Cat. #:15140-122), and 0.3 mg/mL of G418 Sulfate (Gibco, Cat. #: 10131-027).
HepG2.2.15 cells were seeded into 96-well plates at a density of 3×10^4 cells per well in culture media of 100 μL DMEM/F-12 supplemented with 2.5% fetal bovine serum, 100 U/mL penicillin, 100 μg/mL streptomycin and cultured overnight at 37° C. The test compounds were serially half-log diluted in DMSO, then diluted 100 times in culture media. 100 μL culture media containing diluted compounds were added into the plates to reach 0.5% final concentration of DMSO in every well. Five days after compound treatment, culture supernatant was collected for further analysis.
For quantitative PCR detection of extracellular HBV DNA, culture supernatant was processed by 500 μg/mL Proteinase K (Sigma, Cat. #:P2308) digestion at 50° C. for 1 hour. After heat inactivation of the enzyme at 95° C. for 15 minutes, the samples were subjected to HBV DNA quantification by qPCR. The effective compound concentration at which HBV replication was inhibited by 50% (EC50) was determined.
On the technique in general: Quantitative PCR measures a nucleic acid by following its amplification.
Take `C[C@H]1Cn2ncc(N3CCCS3(=O)=O)c2CN1C(=O)Nc1cc(F)c(F)c(F)c1` [Example 1, (6S)-3-(1,1-dioxo-1,2-thiazolidin-2-yl)-6-methyl-N-(3,4,5-trifluorophenyl)-6,7-dihydro-4H-pyrazolo[1,5-a]pyrazine-5-carboxamide]: the pEC50 was 8.34.

Consider `C[C@H]1Cn2ncc(N3CCCS3(=O)=O)c2CN1C(=O)Nc1ccnc(Cl)c1` [Example 2, (6S)—N-(2-chloro-4-pyridyl)-3-(1,1-dioxo-1,2-thiazolidin-2-yl)-6-methyl-6,7-dihydro-4H-pyrazolo[1,5-a]pyrazine-5-carboxamide], for which the pEC50 is 7.10.

As for `C[C@H]1Cn2ncc(N3CCCS3(=O)=O)c2CN1C(=O)Nc1ccc(Cl)c(F)c1` [Example 3, (6S)—N-(4-chloro-3-fluoro-phenyl)-3-(1,1-dioxo-1,2-thiazolidin-2-yl)-6-methyl-6,7-dihydro-4H-pyrazolo[1,5-a]pyrazine-5-carboxamide], the pEC50 was 7.44.

As to `Cc1cc(NC(=O)N2Cc3c(N4CCCS4(=O)=O)cnn3C[C@@H]2C)ccc1F` [Example 4, (6S)-3-(1,1-dioxo-1,2-thiazolidin-2-yl)-N-(4-fluoro-3-methyl-phenyl)-6-methyl-6,7-dihydro-4H-pyrazolo[1,5-a]pyrazine-5-carboxamide], the pEC50 was 8.22.

In the case of `C[C@H]1Cn2ncc(N3CCCS3(=O)=O)c2CN1C(=O)Nc1ccc(F)c(C#N)c1` [Example 5, (6S)—N-(3-cyano-4-fluoro-phenyl)-3-(1,1-dioxo-1,2-thiazolidin-2-yl)-6-methyl-6,7-dihydro-4H-pyrazolo[1,5-a]pyrazine-5-carboxamide], the pEC50 was 7.85.

As to `C[C@H]1Cn2ncc(N3CCCS3(=O)=O)c2CN1C(=O)Nc1ccnc(C(F)F)c1` [Example 6, (6S)—N-[2-(difluoromethyl)-4-pyridyl]-3-(1,1-dioxo-1,2-thiazolidin-2-yl)-6-methyl-6,7-dihydro-4H-pyrazolo[1,5-a]pyrazine-5-carboxamide], the pEC50 is 7.08.

Regarding `C[C@H]1Cn2ncc(N3CCCS3(=O)=O)c2CN1C(=O)Nc1ccc(F)c(C(F)(F)F)c1` [Example 7, (6S)-3-(1,1-dioxo-1,2-thiazolidin-2-yl)-N-[4-fluoro-3-(trifluoromethyl)phenyl]-6-methyl-6,7-dihydro-4H-pyrazolo[1,5-a]pyrazine-5-carboxamide], the pEC50 is 8.01.

`C[C@H]1Cn2ncc(N3CCCS3(=O)=O)c2CN1C(=O)Nc1ccccc1F` [Example 8, (6S)-3-(1,1-dioxo-1,2-thiazolidin-2-yl)-N-(2-fluorophenyl)-6-methyl-6,7-dihydro-4H-pyrazolo[1,5-a]pyrazine-5-carboxamide]: the pEC50 was 6.52.

`C[C@H]1Cn2ncc(N3CCCS3(=O)=O)c2CN1C(=O)Nc1ccc2ncsc2c1` [Example 9, (6S)—N-(1,3-benzothiazol-6-yl)-3-(1,1-dioxo-1,2-thiazolidin-2-yl)-6-methyl-6,7-dihydro-4H-pyrazolo[1,5-a]pyrazine-5-carboxamide]: the pEC50 was 6.59.

As for `C[C@H]1Cn2ncc(N3CCCS3(=O)=O)c2CN1C(=O)Nc1ccsc1` [Example 10, (6S)-3-(1,1-dioxo-1,2-thiazolidin-2-yl)-6-methyl-N-(3-thienyl)-6,7-dihydro-4H-pyrazolo[1,5-a]pyrazine-5-carboxamide], the pEC50 is 6.24.

Take `C[C@H]1Cn2ncc(N3CCCS3(=O)=O)c2CN1C(=O)NCc1ccccc1` [Example 11, (6S)—N-benzyl-3-(1,1-dioxo-1,2-thiazolidin-2-yl)-6-methyl-6,7-dihydro-4H-pyrazolo[1,5-a]pyrazine-5-carboxamide]: the pEC50 was 6.96.

Take `C[C@H]1Cn2ncc(N3CC4COCCN4S3(=O)=O)c2CN1C(=O)Nc1cc(F)c(F)c(F)c1` (stereo partly drawn) [Example 12, (6S)-3-(1,1-dioxo-3a,4,6,7-tetrahydro-3H-[1,2,5]thiadiazolo[3,2-c][1,4]oxazin-2-yl)-6-methyl-N-(3,4,5-trifluorophenyl)-6,7-dihydro-4H-pyrazolo[1,5-a]pyrazine-5-carboxamide]: the pEC50 was 7.40.

For the compound `C[C@H]1Cn2ncc(N3CCN(C(=O)OCc4ccccc4)CS3(=O)=O)c2CN1C(=O)Nc1cc(F)c(F)c(F)c1` [Example 13, Benzyl 2-[(6S)-6-methyl-5-[(3,4,5-trifluorophenyl)carbamoyl]-6,7-dihydro-4H-pyrazolo[1,5-a]pyrazin-3-yl]-1,1-dioxo-1,2,5-thiadiazinane-5-carboxylate], the pEC50 is 7.28.

Regarding `C[C@H]1Cn2ncc(N3CC4CCC(=O)N4CS3(=O)=O)c2CN1C(=O)Nc1cc(F)c(F)c(F)c1` (stereo partly drawn) [Example 14, (6S)-6-methyl-N-(3,4,5-trifluorophenyl)-3-(3,3,6-trioxo-4,7,8,8a-tetrahydro-1H-pyrrolo[2,1-d][1,2,5]thiadiazin-2-yl)-6,7-dihydro-4H-pyrazolo[1,5-a]pyrazine-5-carboxamide], the pEC50 was 7.55.

Turning to `CC(=O)N1CCN(c2cnn3c2CN(C(=O)Nc2cc(F)c(F)c(F)c2)[C@@H](C)C3)S(=O)(=O)C1` [Example 15, (6S)-3-(5-acetyl-1,1-dioxo-1,2,5-thiadiazinan-2-yl)-6-methyl-N-(3,4,5-trifluorophenyl)-6,7-dihydro-4H-pyrazolo[1,5-a]pyrazine-5-carboxamide], the pEC50 is 7.59.

In the case of `CC1CCS(=O)(=O)N1c1cnn2c1CN(C(=O)Nc1cc(F)c(F)c(F)c1)[C@@H](C)C2` (stereo partly drawn) [Example 16, (6S)-6-methyl-3-(3-methyl-1,1-dioxo-1,2-thiazolidin-2-yl)-N-(3,4,5-trifluorophenyl)-6,7-dihydro-4H-pyrazolo[1,5-a]pyrazine-5-carboxamide], the pEC50 is 8.05.

Regarding `C[C@H]1Cn2ncc(N3CCC[S+]3[O-])c2CN1C(=O)Nc1cc(F)c(F)c(F)c1` (stereo partly drawn) [Example 17, (6S)-6-methyl-3-(1-oxo-1,2-thiazolidin-2-yl)-N-(3,4,5-trifluorophenyl)-6,7-dihydro-4H-pyrazolo[1,5-a]pyrazine-5-carboxamide], the pEC50 is 7.07.

Turning to `C[C@H]1Cn2ncc(N3CC(O)CS3(=O)=O)c2CN1C(=O)Nc1cc(F)c(F)c(F)c1` (stereo partly drawn) [Example 18, (6S)-3-(4-hydroxy-1,1-dioxo-1,2-thiazolidin-2-yl)-6-methyl-N-(3,4,5-trifluorophenyl)-6,7-dihydro-4H-pyrazolo[1,5-a]pyrazine-5-carboxamide], the pEC50 is 7.92.

Turning to `C[C@H]1Cn2ncc(N3CCNS3(=O)=O)c2CN1C(=O)Nc1cc(F)c(F)c(F)c1` [Example 19, (6S)-3-(1,1-dioxo-1,2,5-thiadiazolidin-2-yl)-6-methyl-N-(3,4,5-trifluorophenyl)-6,7-dihydro-4H-pyrazolo[1,5-a]pyrazine-5-carboxamide], the pEC50 was 7.85.

With `C[C@H]1Cn2ncc(N3CCN(C)S3(=O)=O)c2CN1C(=O)Nc1cc(F)c(F)c(F)c1` [Example 20, (6S)-6-methyl-3-(5-methyl-1,1-dioxo-1,2,5-thiadiazolidin-2-yl)-N-(3,4,5-trifluorophenyl)-6,7-dihydro-4H-pyrazolo[1,5-a]pyrazine-5-carboxamide], the pEC50 is 7.77.

Regarding `C[C@H]1Cn2ncc(N3[C@@H](C)CS3(=O)=O)c2CN1C(=O)Nc1cc(F)c(F)c(F)c1` [Example 21, (6S)-6-methyl-3-[(3S)-3-methyl-1,1-dioxo-thiazetidin-2-yl]-N-(3,4,5-trifluorophenyl)-6,7-dihydro-4H-pyrazolo[1,5-a]pyrazine-5-carboxamide], the pEC50 is 7.34.

Take `C[C@H]1Cn2ncc(N3[C@@H](C)CNS3(=O)=O)c2CN1C(=O)Nc1cc(F)c(F)c(F)c1` [Example 22, (6S)-6-methyl-3-[(3S)-3-methyl-1,1-dioxo-1,2,5-thiadiazolidin-2-yl]-N-(3,4,5-trifluorophenyl)-6,7-dihydro-4H-pyrazolo[1,5-a]pyrazine-5-carboxamide]: the pEC50 is 7.57.

With `CC1NS(=O)(=O)N(c2cnn3c2CN(C(=O)Nc2cc(F)c(F)c(F)c2)[C@@H](C)C3)[C@H]1C` (stereo partly drawn) [Example 23, (6S)-3-[(3S)-3,4-dimethyl-1,1-dioxo-1,2,5-thiadiazolidin-2-yl]-6-methyl-N-(3,4,5-trifluorophenyl)-6,7-dihydro-4H-pyrazolo[1,5-a]pyrazine-5-carboxamide], the pEC50 is 7.28.

Staying with this test, now noted: five days after compound treatment, extracellular HBV DNA in culture supernatant by qPCR, read-out: EC50 (effective compound concentration at which HBV replication was inhibited by 50%).
As to `CC1Cn2nnc(N3CCCS3(=O)=O)c2CN1C(=O)Nc1cc(F)c(F)c(F)c1` (single isomer, unassigned) [Example 33-1, 3-(1,1-dioxo-1,2-thiazolidin-2-yl)-6-methyl-N-(3,4,5-trifluorophenyl)-6,7-dihydro-4H-triazolo[1,5-a]pyrazine-5-carboxamide], the pEC50 is 7.62.

Consider `CC1Cn2nnc(N3CCCS3(=O)=O)c2CN1C(=O)Nc1cc(F)c(F)c(F)c1` (single isomer, unassigned) [Example 33-2, 3-(1,1-dioxo-1,2-thiazolidin-2-yl)-6-methyl-N-(3,4,5-trifluorophenyl)-6,7-dihydro-4H-triazolo[1,5-a]pyrazine-5-carboxamide], for which the pEC50 was 6.39.
